Each structure is given as a SMILES string. Calls of active or inactive are those of the source. The rule behind the calls is not given here. Bounds are passed on as bounds.

The experiment relates to M. tuberculosis H37Rv growth inhibition with meropenem. As to the kind of experiment: dose response, H37Rv, with and without meropenem (AID 434987).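 Note: growth over 7 days at 37 °C before Alamar Blue read on day 9.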
Where [1] appears, read: M. tuberculosis H37Rv growth inhibition, measured here: IC50 without meropenem.
Where [2] appears, read: M. tuberculosis H37Rv growth inhibition, measured here: IC90 without meropenem.
[3] abbreviates: measured here: IC90 with meropenem.

Usually IC50 stands for the concentration at which inhibition is half-maximal. Broadly, the IC90 is the concentration needed for an effect of 90%. For `COc1cccc(/C=N/Nc2nc(N3CCCC3)nc(N3CCCC3)n2)c1O`, the IC50 was 8.14 µM. The compound also had an IC50 under setting [1] of 25.1 µM. Also, the IC90 under setting [2] is 63.7 µM. The compound further came in with an IC90 under setting [3] of 36.1 µM.
For `CCOC(=O)Cc1nc2ccccc2[nH]1` the same measures were 15.3 µM, 49.6 µM, above 100 µM and above 100 µM.
Take `Cc1ccc(OCC(=O)N/N=C/c2cn(C)c3ccccc23)cc1`: the IC50 was 24.7 µM. For the same compound, the IC50 under setting [1] is above 100 µM. For the same compound, under setting [2], the IC90 is above 100 µM. In addition, the concentration for an effect of 90% (IC90) under setting [3] was above 100 µM.
For `Cc1cc(C)n(-c2nc(-c3ccc(Cl)c(Cl)c3)cs2)n1`, the IC50 was 14.5 µM. Under setting [1], this compound displayed an IC50 above 100 µM. Moreover, under setting [2], the IC90 was above 100 µM. For the same compound, the IC90 under setting [3] was above 100 µM.
For the compound `Cn1c(=O)[nH]c(=O)c2c1nc(Br)n2CCC(=O)c1ccccc1`, the IC50 was 38.6 µM. The same compound came in with an IC50 under setting [1] above 100 µM. The same compound had an IC90 under setting [2] above 100 µM. The compound also had an IC90 under setting [3] above 50 µM.
As for `COc1ccc(-c2cc(=Nc3ccc(C)cc3)c3ccccc3o2)cc1`, the IC50 is 78.3 µM (inactive). Moreover, the IC50 under setting [1] was above 100 µM. Further, the IC90 under setting [2] was above 100 µM. Under setting [3], this compound came in with an IC90 of 98.3 µM.
Consider `NC(=O)Nc1ccc(C(=O)OCC(=O)Nc2ccc(Cl)cn2)cc1`, for which the IC50 was > 100 µM (inactive). Besides, the IC50 under setting [1] was above 100 µM. Under setting [2], this compound gave an IC90 above 100 µM. For the same compound, the 90% effect concentration (IC90) under setting [3] was above 100 µM.
Turning to `Cc1ccc(O)c(-c2cc(-c3ccccc3F)[nH]n2)c1`, the IC50 was > 100 µM (inactive). The same compound returned an IC50 under setting [1] above 100 µM. For the same compound, the IC90 under setting [2] was above 100 µM. The IC90 under setting [3] is above 100 µM.
On to `CC(=O)Nc1ccc(SCC(=O)c2cc(C)n(C)c2C)cc1`, for which the IC50 was 47 µM (inactive). The IC50 under setting [1] is 57.3 µM. The compound further showed an IC90 under setting [2] above 100 µM. This compound also had an IC90 under setting [3] of 53.6 µM.
Take `COc1ccc(C(=O)NC(=S)Nc2ccc(S(=O)(=O)Nc3cc(C)on3)cc2)cc1OC`: the IC50 was 13.8 µM. This compound yielded an IC50 under setting [1] of 36.5 µM. The IC90 under setting [2] is above 100 µM. Under setting [3], this compound gave an IC90 of 29 µM.
Turning to `O=C1c2cccc3c(N4CCCCC4)ccc(c23)C(=O)N1c1ccccn1`, the IC50 was 84.8 µM (inactive). The same compound registered an IC50 under setting [1] above 100 µM. In addition, under setting [2], the IC90 is above 100 µM. The compound further returned an IC90 under setting [3] above 100 µM.
As to `COc1ccc2cc(C3=CCCCC3)ncc2c1`, the IC50 was 74.8 µM (inactive). Also, the IC50 under setting [1] is above 100 µM. Under setting [2], this compound gave an IC90 above 100 µM. The same compound had an IC90 under setting [3] above 100 µM.
As for `CCNC(=S)N/N=C1\C(=O)c2cccc3cccc1c23`, the concentration for half-maximal inhibition (IC50) was 5.46 µM. For the same compound, the IC50 under setting [1] is above 100 µM. The same compound had an IC90 under setting [2] above 100 µM. Moreover, under setting [3], the IC90 was determined as 7.61 µM.
With `C/C(=N/NC(=O)c1ccccn1)c1ccncc1`, the IC50 is 9.52 µM. Also, under setting [1], the IC50 turned out to be 31.8 µM. Under setting [2], this compound gave an IC90 above 100 µM. This compound gave an IC90 under setting [3] of 23.1 µM.
Turning to `Cc1cc(NC(=O)COc2nnc(-c3ccccc3)c3ccccc23)no1`, the IC50 is 14 µM. For the same compound, the IC50 under setting [1] is above 100 µM. The compound also returned an IC90 under setting [2] above 100 µM. Moreover, the IC90 under setting [3] is above 25 µM.
For `O=c1oc(CCCO)cc2ccc(C#Cc3ccsc3)cc12`, the IC50 is > 100 µM (inactive). In addition, the IC50 under setting [1] is above 100 µM. Also, the IC90 under setting [2] was above 100 µM. The same compound yielded an IC90 under setting [3] above 100 µM.
`O=C(NCc1ccc2c(c1)OCO2)Nc1ccc2ccccc2c1`: the IC50 was 78.3 µM (inactive). Under setting [1], the IC50 is above 100 µM. The compound also had an IC90 under setting [2] above 100 µM. The compound further had an IC90 under setting [3] above 100 µM.
Turning to `CC(C)CN(C(=O)CN1CCN(S(=O)(=O)c2ccccc2)CC1)c1c(N)n(CC(C)C)c(=O)[nH]c1=O`, the IC50 is > 100 µM (inactive). The compound also registered an IC50 under setting [1] above 100 µM. Under setting [2], this compound gave an IC90 above 100 µM. In addition, the IC90 under setting [3] was above 100 µM.
In the case of `O=C(NCc1cccs1)c1cc(-c2ccccc2)nc2ccccc12`, the IC50 was > 100 µM (inactive). Under setting [1], this compound yielded an IC50 above 100 µM. The IC90 under setting [2] is above 100 µM. Under setting [3], this compound showed an IC90 above 100 µM.
As to `O=C(COC(=O)C1CC1)c1c[nH]c2ccccc12`, the IC50 was 0.999 µM. The compound further had an IC50 under setting [1] above 100 µM. Under setting [2], this compound returned an IC90 above 100 µM. Moreover, the IC90 under setting [3] was above 100 µM.
In the case of `COC(=O)c1c(NC(=O)C2c3ccccc3Oc3ccccc32)sc(C)c1C`, the IC50 is > 100 µM (inactive). Besides, the IC50 under setting [1] is above 100 µM. The IC90 under setting [2] was above 100 µM. The compound further yielded an IC90 under setting [3] above 100 µM.
Take `CCOC(=O)Cn1c(C)cc(=O)c2cccc(C)c21`: the IC50 was 26.4 µM. Further, under setting [1], the IC50 was above 100 µM. Also, the IC90 under setting [2] is above 100 µM. The same compound returned an IC90 under setting [3] above 100 µM.

Values taken from PubChem BioAssay AID434987 (Southern Research Specialized Biocontainment Screening …, 2010).
